Where two headings read alike, the source gives them in different places.
How the values were obtained:
[1] = Effect of β-CD and methylated β-CD on stabilization of 11107B in Dulbecco's PBS (-) at 25° C. (HPLC purity); format: physicochemical
Method: (§1) <Calculation Equation> 11107B purity(%)=[peak surface area value of 11107B/(sum of peak surface area value of 11107B+peak surface area value of impurities and decomposition products)]×100
The macrolide compound 11107B and β-CD or methylated β-CD were dissolved in Dulbecco's PBS (−) in concentrations of 0.1 mg/mL and 10 mg/mL, respectively. The 11107B solution and β-CD solution were mixed in equal volumes, and incubation was immediately begun in thermostatic incubator at 25° C. The solution was sampled at the start (0 hour) and after 24, 48 and 120 hours had elapsed, and the samples were analyzed by HPLC under the following analysis conditions (B). The purity of the 11107B was calculated from the equation in Example 1 using the resulting chromatogram.
<HPLC Analysis Conditions (B)>
Column: Develosil ODS UG-3, 4.6×50 mm, 3 μm (made by Nomura Chemical)
Column temperature: 40° C.
Detection wavelength: 240 nm
Eluate: water/methanol gradient
• A=water, B=methanol • 45-55% B (0 to 5 minutes), 55% B (5 to 13 minutes) • 55-70% B (13 to 21 minutes), 45% B (21 to 25 minutes) Retention time: 13 minutes (11107B)

[2] = format: physicochemical
Method: The macrolide compound 11107B was dissolved in Dulbecco's PBS (−) in a concentration of 0.1 mg/mL, and β-CD in concentrations of 10, 3, 1, and 0.3 mg/mL. The 11107B solution and β-CD solution were mixed in equal volumes, and incubation was immediately begun in a 40° C. thermostatic incubator. The solution was sampled at the start (0 hour) and after 1, 2, 4 and 6 hours had elapsed, the samples were analyzed by HPLC under the analysis conditions (A) of Example 1, and the concentration of the 11107B was calculated. Since the plot of the 11107B concentration versus elapsed time was substantially linear, it was concluded that decomposition was occurring in pseudo first-order reaction, and the apparent decomposition rate constant kobs was calculated from the slope thereof. kobs was termed k0 when no β-CD was prevent. According to a report by Ma et al. (J. Pharm. Sci. (2000), 89 (2), 275-287), 1/(k0-kobs) was plotted against the inverse of the β-CD concentration, kc, which is kobs when a large excess of β-CD was present, was calculated from an intercept thereof, and the stabilization constant Kc was calculated from the slope.

[3] = Effects of various cyclodextrins on stabilization of macrolide compound 11107B in Dulbecco's PBS (-) at 25° C. (HPLC purity); format: physicochemical
Method: The macrolide compound 11107B (hereinafter sometimes abbreviated as 11107B) and various cyclodextrins were dissolved in concentrations of 0.1 mg/mL and 10 mg/mL, respectively, in Dulbecco's PBS (−). The 11107B solution and cyclodextrin solution were mixed in equal volumes, and incubation was immediately begun in at thermostatic incubator at 25° C. The solution was sampled at the start (0 hour) and after 24 and 48 hours had elapsed, the samples were analyzed by high performance liquid chromatography (HPLC) under the following analysis conditions (A), and the purity of the 11107B was calculated from the following equation using the chromatogram thus obtained.
<HPLC Analysis Conditions (A)>
Column: L-column, 4.6×150 mm, Chemicals Evaluation and Research Institute
Column temperature: 35° C.
Detection wavelength: 241 nm
Mobile phase A: 0.1% (v/v) formic acid•10% (v/v) acetonitrile
Mobile phase B: 0.1% (v/v) formic acid•90% (v/v) acetonitrile
Gradient program: B=10% (start)→B=40% (15 minutes)→B=100% (20 minutes)→B=10% (20.01 minutes)→B=10% (23 minutes, stop)<
as §1

[4] = format: physicochemical; conditions: for Purity of macorolide compound 11107B: freeze-dried preparation
Method: as §1
Lactose monohydrate was dissolved in purified water in a concentration of 10 mg/mL and HP-β-CD in concentrations of 0, 10 and 200 mg/mL. The macrolide compound 11107B was dissolved in a concentration of 0.1 mg/mL in each of these three types of solution. 1 mL of each solution was put into vials and freeze-dried. The freeze-dried preparations thus obtained were stored for one month at −20° C., 40° C. and 60° C., after which 1 mL of 50% acetonitrile aqueous solution was added to each vial to dissolve the preparation. This product was analyzed by HPLC analysis under the conditions (A) of Example 1, and the purity of the 11107B was calculated according to the equation of Example 1.

[5] = β-CD concentration 0.15 mg/mL, PBS (-), 40° C.
[6] = β-CD concentration 0.5 mg/mL, PBS (-), 40° C.
[7] = β-CD concentration 1.5 mg/mL, PBS (-), 40° C.
[8] = β-CD concentration 5 mg/mL, PBS (-), 40° C.

CCC(O)C(C)C1OC1CC(C)/C=C/C=C(\C)C1OC(=O)CC(O)CCC(C)(O)C(OC(C)=O)/C=C/C1C (stereo not drawn) [11107B, (8E,12E,14E)-7-acetoxy-3,6,21-trihydroxy-6,10,12,16,20-pentamethyl-18,19-epoxytricosa-8,12,14-trien-11-olide]
Purity of macorolide compound 11107B ([1]; CD not added, 0 h): 98%
Purity of macorolide compound 11107B ([1]; CD not added, 24 h): 59%
Purity of macorolide compound 11107B ([1]; CD not added, 48 h): 34%
Purity of macorolide compound 11107B ([1]; CD not added, 120 h): 3%
Purity of macorolide compound 11107B ([1]; methylated β-CD (10 mg/mL solution mixed in equal volume with 0.1 mg/mL 11107B), 0 h): 98%
Purity of macorolide compound 11107B ([1]; methylated β-CD (10 mg/mL solution mixed in equal volume with 0.1 mg/mL 11107B), 24 h): 95%
Purity of macorolide compound 11107B ([1]; methylated β-CD (10 mg/mL solution mixed in equal volume with 0.1 mg/mL 11107B), 48 h): 92%
Purity of macorolide compound 11107B ([1]; methylated β-CD (10 mg/mL solution mixed in equal volume with 0.1 mg/mL 11107B), 120 h): 80%
Purity of macorolide compound 11107B ([1]; β-CD (10 mg/mL solution mixed in equal volume with 0.1 mg/mL 11107B), 0 h): 98%
Purity of macorolide compound 11107B ([1]; β-CD (10 mg/mL solution mixed in equal volume with 0.1 mg/mL 11107B), 24 h): 95%
Purity of macorolide compound 11107B ([1]; β-CD (10 mg/mL solution mixed in equal volume with 0.1 mg/mL 11107B), 48 h): 90%
Purity of macorolide compound 11107B ([1]; β-CD (10 mg/mL solution mixed in equal volume with 0.1 mg/mL 11107B), 120 h): 74%
stabilization constant Kc ([2]; 0.05 mg/mL): ≥ 1500
k0 (kobs when no β-CD was present) ([2]; PBS (-), 40° C., estimated): 0.152 h⁻¹
kc (kobs when a large excess of β-CD was present) ([2]; from intercept of 1/(k0-kobs) versus inverse of β-CD concentration, PBS (-), 40° C.): 0.004 h⁻¹
kobs (apparent decomposition rate constant) ([2]; β-CD concentration 0 mg/mL, PBS (-), 40° C.): 0.152 h⁻¹
1/(k0 − kobs) [2, 5]: 39.057
k0 − kobs [2, 5]: 0.026
kobs (apparent decomposition rate constant) [2, 5]: 0.126 h⁻¹
1/(k0 − kobs) [2, 6]: 16.736
k0 − kobs [2, 6]: 0.060
kobs (apparent decomposition rate constant) [2, 6]: 0.092 h⁻¹
1/(k0 − kobs) [2, 7]: 9.971
k0 − kobs [2, 7]: 0.100
kobs (apparent decomposition rate constant) [2, 7]: 0.052 h⁻¹
1/(k0 − kobs) [2, 8]: 7.590
k0 − kobs [2, 8]: 0.132
kobs (apparent decomposition rate constant) [2, 8]: 0.020 h⁻¹
decomposition rate of included 11107B relative to 11107B that was not included ([2]; β-CD inclusion, PBS (-), 40° C.): 1/30
Purity of macorolide compound 11107B ([3]; CD not added, 0 h, Dulbecco's PBS (-)): 99%
Purity of macorolide compound 11107B ([3]; CD not added, 24 h, Dulbecco's PBS (-)): 62%
Purity of macorolide compound 11107B ([3]; CD not added, 48 h, Dulbecco's PBS (-)): 35%
Purity of macorolide compound 11107B ([3]; HP-α-CD (10 mg/mL solution mixed in equal volume with 0.1 mg/mL 11107B), 0 h, PBS (-)): 99%
Purity of macorolide compound 11107B ([3]; HP-α-CD (10 mg/mL solution mixed in equal volume with 0.1 mg/mL 11107B), 24 h, PBS (-)): 71%
Purity of macorolide compound 11107B ([3]; HP-α-CD (10 mg/mL solution mixed in equal volume with 0.1 mg/mL 11107B), 48 h, PBS (-)): 47%
Purity of macorolide compound 11107B ([3]; HP-β-CD (10 mg/mL solution mixed in equal volume with 0.1 mg/mL 11107B), 0 h, PBS (-)): 100%
Purity of macorolide compound 11107B ([3]; HP-β-CD (10 mg/mL solution mixed in equal volume with 0.1 mg/mL 11107B), 24 h, PBS (-)): 93%
Purity of macorolide compound 11107B ([3]; HP-β-CD (10 mg/mL solution mixed in equal volume with 0.1 mg/mL 11107B), 48 h, PBS (-)): 86%
Purity of macorolide compound 11107B ([3]; HP-γ-CD (10 mg/mL solution mixed in equal volume with 0.1 mg/mL 11107B), 0 h, PBS (-)): 99%
Purity of macorolide compound 11107B ([3]; HP-γ-CD (10 mg/mL solution mixed in equal volume with 0.1 mg/mL 11107B), 24 h, PBS (-)): 83%
Purity of macorolide compound 11107B ([3]; HP-γ-CD (10 mg/mL solution mixed in equal volume with 0.1 mg/mL 11107B), 48 h, PBS (-)): 67%
Purity of macorolide compound 11107B ([3]; α-CD (10 mg/mL solution mixed in equal volume with 0.1 mg/mL 11107B), 0 h, PBS (-)): 99%
Purity of macorolide compound 11107B ([3]; α-CD (10 mg/mL solution mixed in equal volume with 0.1 mg/mL 11107B), 24 h, PBS (-)): 71%
Purity of macorolide compound 11107B ([3]; α-CD (10 mg/mL solution mixed in equal volume with 0.1 mg/mL 11107B), 48 h, PBS (-)): 47%
Purity of macorolide compound 11107B ([3]; β-CD (10 mg/mL solution mixed in equal volume with 0.1 mg/mL 11107B), 0 h, PBS (-)): 100%
Purity of macorolide compound 11107B ([3]; β-CD (10 mg/mL solution mixed in equal volume with 0.1 mg/mL 11107B), 24 h, PBS (-)): 95%
Purity of macorolide compound 11107B ([3]; β-CD (10 mg/mL solution mixed in equal volume with 0.1 mg/mL 11107B), 48 h, PBS (-)): 90%
Purity of macorolide compound 11107B ([3]; γ-CD (10 mg/mL solution mixed in equal volume with 0.1 mg/mL 11107B), 0 h, PBS (-)): 100%
Purity of macorolide compound 11107B ([3]; γ-CD (10 mg/mL solution mixed in equal volume with 0.1 mg/mL 11107B), 24 h, PBS (-)): 88%
Purity of macorolide compound 11107B ([3]; γ-CD (10 mg/mL solution mixed in equal volume with 0.1 mg/mL 11107B), 48 h, PBS (-)): 77%
stability in a solid form in a freeze-dried preparation on addition of cyclodextrin [4]: sufficiently stabilized
Purity of macorolide compound 11107B ([4]; HP-β-CD concentration 10 mg/mL, stored one month at 40° C.): 99.76 ± 0.08%
Purity of macorolide compound 11107B ([4]; HP-β-CD concentration 10 mg/mL, stored one month at 60° C.): 98.60 ± 0.06%
Purity of macorolide compound 11107B ([4]; HP-β-CD concentration 10 mg/mL, stored one month at −20° C.): 99.73 ± 0.01%
Purity of macorolide compound 11107B ([4]; HP-β-CD concentration 200 mg/mL, stored one month at 40° C.): 99.82 ± 0.02%
Purity of macorolide compound 11107B ([4]; HP-β-CD concentration 200 mg/mL, stored one month at 60° C.): 98.90 ± 0.05%
Purity of macorolide compound 11107B ([4]; HP-β-CD concentration 200 mg/mL, stored one month at −20° C.): 99.70 ± 0.00%
Purity of macorolide compound 11107B ([4]; HP-β-CD not added, stored one month at 40° C.): 98.17 ± 0.12%
Purity of macorolide compound 11107B ([4]; HP-β-CD not added, stored one month at 60° C.): 94.63 ± 0.11%
Purity of macorolide compound 11107B ([4]; HP-β-CD not added, stored one month at −20° C.): 99.56 ± 0.01%
